Columns and labels:
Abutilon theophrasti [1] = assay: Post-emergence herbicidal action, ABUTH; type: in vivo; conditions: 80 g/ha, Table D
Summary of the method: (§1)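 Herbicidal effect is rated visually as percent versus untreated plants (100% = dead, 0% = like control) about 3 weeks after spraying. Plants were sown in sandy loam in the greenhouse and sprayed on green parts at the one-leaf stage, 2 to 3 weeks post-sowing.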

Pharbitis purpureum = assay: Post-emergence herbicidal action, PHBPU; type: in vivo; conditions: 80 g/ha, Table D
Summary of the method: as §1

Alopecurus myosuroides [2] = assay: Pre-emergence herbicidal action, ALOMY; type: in vivo; conditions: for herbicidal activity ALOMY: dosage 320 g/ha, scored visually after 3 weeks vs untreated controls
Summary of the method: (§2)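 Weed seeds were laid out in sandy loam and covered with soil, then the soil surface was treated with an aqueous suspension or emulsion of the formulated compound containing 0.2% wetting agent. Pots stayed in the greenhouse for 3 weeks before damage was rated visually against untreated plants.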

ECHCG [3] = assay: Post-emergence herbicidal action, ECHCG; type: in vivo; conditions: 80 g/ha, Table C
Summary of the method: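 Weed and crop plants grown in sandy loam in the greenhouse, treated at the one-leaf stage 2–3 weeks after sowing. Damage scored visually after about 3 weeks vs untreated controls (0% = control, 100% = dead).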

Alopecurus myosuroides [4] = assay: Post-emergence herbicidal action, ALOMY; type: in vivo; conditions: for herbicidal activity ALOMY: Table C
Summary of the method: as §1

Polygonum convolvulus = assay: Pre-emergence herbicidal action, POLCO; type: in vivo; conditions: Table K
Description: 1. Pre-Emergence Herbicidal Action Against Harmful Plants Seeds of monocotyledonous and dicotyledonous weed plants and crop plants are laid out in sandy loam soil in wood-fiber pots and covered with soil. The compounds of the invention, formulated in the form of wettable powders (WP) or as emulsion concentrates (EC), are then applied to the surface of the covering soil in the form of an aqueous suspension or emulsion at a water application rate equating to […], with addition of 0.2% wetting agent. After the treatment, the pots are placed in a greenhouse and kept under good growth conditions for the trial plants. The damage to the test plants is scored visually after a test period of 3 weeks by comparison with untreated controls (herbicidal activity in percent (%): 100% activity=the plants have died, 0% activity=like control plants).
For comparison, the herbicidal activity of numerous compounds according to the invention was tested with the structurally closest compounds known from the documents WO 2011/035874, WO 2012/028579 and WO 2012/126932, by the pre- and post-emergence method.

Viola tricolor [5] = assay: Post-emergence herbicidal action, VIOTR; type: in vivo; conditions: for herbicidal activity VIOTR: Table D
Summary of the method: as §1

Matricaria inodora = assay: Pre-emergence herbicidal action, MATIN; type: in vivo; conditions: for Herbicidal efficacy against MATIN: Table K; for herbicidal activity MATIN: scored visually after 3 weeks vs untreated controls
Summary of the method: as §2

Setaria viridis [6] = assay: Post-emergence herbicidal action, SETVI; type: in vivo; conditions: for herbicidal activity SETVI: Table C
Summary of the method: as §1

ECHCG [7] = assay: Pre-emergence herbicidal action, ECHCG; type: in vivo, Echinochloa crus-galli
Stellaria media [8] = assay: Pre-emergence herbicidal action, STEME; type: in vivo; conditions: dosage 320 g/ha, scored visually after 3 weeks vs untreated controls
Summary of the method: as §2

Cyperus serotinus = assay: Pre-emergence herbicidal action, CYPES; type: in vivo; conditions: for herbicidal activity CYPES: dosage 320 g/ha, scored visually after 3 weeks vs untreated controls
Summary of the method: as §2

Amaranthus retroflexus [9] = assay: Pre-emergence herbicidal action, AMARE; type: in vivo; conditions: dosage 320 g/ha, scored visually after 3 weeks vs untreated controls
Summary of the method: as §2

Viola tricolor [10] = assay: Pre-emergence herbicidal action, VIOTR; type: in vivo; conditions: for Herbicidal efficacy against VIOTR: Table K; for herbicidal activity VIOTR: scored visually after 3 weeks vs untreated controls
Summary of the method: as §2

Setaria viridis [11] = assay: Pre-emergence herbicidal action, SETVI; type: in vivo; conditions: for herbicidal activity SETVI: dosage 320 g/ha, scored visually after 3 weeks vs untreated controls
Summary of the method: as §2

Avena fatua [12] = assay: Pre-emergence herbicidal action, AVEFA; type: in vivo; conditions: for herbicidal activity AVEFA: dosage 320 g/ha, scored visually after 3 weeks vs untreated controls
Summary of the method: as §2

Abutilon theophrasti [13] = assay: Pre-emergence herbicidal action, ABUTH; type: in vivo; conditions: for Herbicidal efficacy against ABUTH: Table K; for herbicidal activity ABUTH: scored visually after 3 weeks vs untreated controls
Summary of the method: as §2

Stellaria media [14] = assay: Post-emergence herbicidal action, STEME; type: in vivo; conditions: for Herbicidal activity STEME: Table D
Summary of the method: as §1

Avena fatua [15] = assay: Post-emergence herbicidal action, AVEFA; type: in vivo; conditions: for herbicidal activity AVEFA: Table C
Summary of the method: as §1

Amaranthus retroflexus [16] = assay: Post-emergence herbicidal action, AMARE; type: in vivo; conditions: 80 g/ha, Table D
Summary of the method: as §1

Cc1c(C(=O)Nc2nnnn2C)ccc(C(F)F)c1S(C)(=O)=O [Example 1-3]
60: Herbicidal efficacy against ALOMY (Alopecurus myosuroides [4]; 5 g/ha)
70: Herbicidal efficacy against SETVI (Setaria viridis [11]; 20 g/ha) | Herbicidal efficacy against AVEFA (Avena fatua [15]; 5 g/ha)
80: Herbicidal efficacy against MATIN (Matricaria inodora; dosage 20 g/ha) | Herbicidal efficacy against AVEFA (Avena fatua [12]; 20 g/ha)
80%: herbicidal activity ABUTH (Abutilon theophrasti [1])
100: Herbicidal efficacy against ALOMY (Alopecurus myosuroides [2]; 320 g/ha) | Herbicidal efficacy against VIOTR (Viola tricolor [5]; 5 g/ha) | Herbicidal efficacy against VIOTR (Viola tricolor [5]; 80 g/ha) | Herbicidal efficacy against MATIN (Matricaria inodora; dosage 80 g/ha) | Herbicidal efficacy against MATIN (Matricaria inodora; dosage 320 g/ha) | Herbicidal efficacy against ECHCG (ECHCG [7]; 80 g/ha) | Herbicidal efficacy against ECHCG (ECHCG [7]; 320 g/ha) | Herbicidal efficacy against VIOTR (Viola tricolor [10]; dosage 20 g/ha) | Herbicidal efficacy against VIOTR (Viola tricolor [10]; dosage 80 g/ha) | Herbicidal efficacy against VIOTR (Viola tricolor [10]; dosage 320 g/ha) | Herbicidal efficacy against SETVI (Setaria viridis [11]; 80 g/ha) | Herbicidal efficacy against SETVI (Setaria viridis [11]; 320 g/ha) | Herbicidal efficacy against AVEFA (Avena fatua [12]; 80 g/ha) | Herbicidal efficacy against AVEFA (Avena fatua [12]; 320 g/ha) | Herbicidal efficacy against ABUTH (Abutilon theophrasti [13]; dosage 20 g/ha) | Herbicidal efficacy against ABUTH (Abutilon theophrasti [13]; dosage 80 g/ha) | Herbicidal efficacy against ABUTH (Abutilon theophrasti [13]; dosage 320 g/ha) | Herbicidal efficacy against STEME (Stellaria media [14]; 80 g/ha) | Herbicidal efficacy against AVEFA (Avena fatua [15]; 80 g/ha)
90: Herbicidal efficacy against ALOMY (Alopecurus myosuroides [2]; 80 g/ha) | Herbicidal efficacy against ALOMY (Alopecurus myosuroides [4]; 80 g/ha) | Herbicidal efficacy against POLCO (Polygonum convolvulus; dosage 80 g/ha) | Herbicidal efficacy against POLCO (Polygonum convolvulus; dosage 320 g/ha) | Herbicidal efficacy against SETVI (Setaria viridis [6]; 5 g/ha) | Herbicidal efficacy against SETVI (Setaria viridis [6]; 80 g/ha) | Herbicidal efficacy against ECHCG (ECHCG [7]; 20 g/ha) | Herbicidal efficacy against CYPES (Cyperus serotinus; 80 g/ha) | Herbicidal efficacy against CYPES (Cyperus serotinus; 320 g/ha) | Herbicidal efficacy against STEME (Stellaria media [14]; 5 g/ha)
100%: Herbicidal activity PHBPU (Pharbitis purpureum) | herbicidal activity ALOMY (Alopecurus myosuroides [2]) | herbicidal activity VIOTR (Viola tricolor [5]; 80 g/ha) | herbicidal activity MATIN (Matricaria inodora; dosage 320 g/ha) | Herbicidal activity STEME (Stellaria media [8]) | herbicidal activity AMARE (Amaranthus retroflexus [9]) | herbicidal activity VIOTR (Viola tricolor [10]; dosage 320 g/ha) | herbicidal activity SETVI (Setaria viridis [11]) | herbicidal activity AVEFA (Avena fatua [12]) | herbicidal activity ABUTH (Abutilon theophrasti [13]; dosage 320 g/ha) | Herbicidal activity STEME (Stellaria media [14]; 80 g/ha) | herbicidal activity AVEFA (Avena fatua [15]; 80 g/ha)
50: Herbicidal efficacy against ALOMY (Alopecurus myosuroides [2]; 20 g/ha)
30: Herbicidal efficacy against POLCO (Polygonum convolvulus; dosage 20 g/ha) | Herbicidal efficacy against CYPES (Cyperus serotinus; 20 g/ha)
90%: Herbicidal activity ECHCG (ECHCG [3]) | herbicidal activity ALOMY (Alopecurus myosuroides [4]; 80 g/ha) | herbicidal activity SETVI (Setaria viridis [6]; 80 g/ha) | herbicidal activity CYPES (Cyperus serotinus)

CCc1c(C(=O)Nc2nnc(C)o2)ccc(C(F)F)c1[S+]([O-])CC (stereo not drawn) [Example 7-15]
100%: herbicidal activity ABUTH (Abutilon theophrasti [1]) | herbicidal activity ALOMY (Alopecurus myosuroides [2]) | herbicidal activity AMARE (Amaranthus retroflexus [16]) | herbicidal activity VIOTR (Viola tricolor [5]; 80 g/ha) | herbicidal activity MATIN (Matricaria inodora; dosage 320 g/ha) | herbicidal activity SETVI (Setaria viridis [6]; 80 g/ha) | Herbicidal activity STEME (Stellaria media [8]) | herbicidal activity CYPES (Cyperus serotinus) | herbicidal activity AMARE (Amaranthus retroflexus [9]) | herbicidal activity VIOTR (Viola tricolor [10]; dosage 320 g/ha) | herbicidal activity SETVI (Setaria viridis [11]) | herbicidal activity AVEFA (Avena fatua [12]) | herbicidal activity ABUTH (Abutilon theophrasti [13]; dosage 320 g/ha) | Herbicidal activity STEME (Stellaria media [14]; 80 g/ha) | herbicidal activity AVEFA (Avena fatua [15]; 80 g/ha)
90%: Herbicidal activity PHBPU (Pharbitis purpureum) | Herbicidal activity ECHCG (ECHCG [3]) | herbicidal activity ALOMY (Alopecurus myosuroides [4]; 80 g/ha)

CCc1c(C(=O)Nc2nnc(C)o2)ccc(C(F)F)c1S(=O)(=O)CC [Example 7-16]
100%: herbicidal activity ABUTH (Abutilon theophrasti [1]) | herbicidal activity ALOMY (Alopecurus myosuroides [2]) | herbicidal activity AMARE (Amaranthus retroflexus [16]) | herbicidal activity VIOTR (Viola tricolor [5]; 80 g/ha) | herbicidal activity MATIN (Matricaria inodora; dosage 320 g/ha) | herbicidal activity SETVI (Setaria viridis [6]; 80 g/ha) | Herbicidal activity STEME (Stellaria media [8]) | herbicidal activity CYPES (Cyperus serotinus) | herbicidal activity AMARE (Amaranthus retroflexus [9]) | herbicidal activity VIOTR (Viola tricolor [10]; dosage 320 g/ha) | herbicidal activity SETVI (Setaria viridis [11]) | herbicidal activity AVEFA (Avena fatua [12]) | herbicidal activity ABUTH (Abutilon theophrasti [13]; dosage 320 g/ha) | Herbicidal activity STEME (Stellaria media [14]; 80 g/ha)
90%: Herbicidal activity PHBPU (Pharbitis purpureum) | Herbicidal activity ECHCG (ECHCG [3]) | herbicidal activity ALOMY (Alopecurus myosuroides [4]; 80 g/ha) | herbicidal activity AVEFA (Avena fatua [15]; 80 g/ha)

CSc1c(C(F)F)ccc(C(=O)Nc2nnc(C)o2)c1Cl [Example 7-47]
100%: Herbicidal activity ECHCG (ECHCG [3]) | herbicidal activity VIOTR (Viola tricolor [5]; 80 g/ha) | herbicidal activity MATIN (Matricaria inodora; dosage 320 g/ha) | herbicidal activity SETVI (Setaria viridis [6]; 80 g/ha) | herbicidal activity AMARE (Amaranthus retroflexus [9]) | herbicidal activity VIOTR (Viola tricolor [10]; dosage 320 g/ha) | herbicidal activity SETVI (Setaria viridis [11]) | herbicidal activity ABUTH (Abutilon theophrasti [13]; dosage 320 g/ha) | Herbicidal activity STEME (Stellaria media [14]; 80 g/ha) | herbicidal activity AVEFA (Avena fatua [15]; 80 g/ha)
90%: herbicidal activity ABUTH (Abutilon theophrasti [1]) | Herbicidal activity PHBPU (Pharbitis purpureum) | herbicidal activity ALOMY (Alopecurus myosuroides [2]) | herbicidal activity AMARE (Amaranthus retroflexus [16]) | Herbicidal activity STEME (Stellaria media [8]) | herbicidal activity AVEFA (Avena fatua [12])
80%: herbicidal activity ALOMY (Alopecurus myosuroides [4]; 80 g/ha) | herbicidal activity CYPES (Cyperus serotinus)

CCSc1c(C(F)F)ccc(C(=O)Nc2nnc(C)o2)c1Br [Example 7-62]
100%: herbicidal activity ABUTH (Abutilon theophrasti [1]) | herbicidal activity ALOMY (Alopecurus myosuroides [2]) | Herbicidal activity ECHCG (ECHCG [3]) | herbicidal activity AMARE (Amaranthus retroflexus [16]) | herbicidal activity VIOTR (Viola tricolor [5]; 80 g/ha) | herbicidal activity SETVI (Setaria viridis [6]; 80 g/ha) | Herbicidal activity STEME (Stellaria media [8]) | herbicidal activity AMARE (Amaranthus retroflexus [9]) | herbicidal activity VIOTR (Viola tricolor [10]; dosage 320 g/ha) | herbicidal activity SETVI (Setaria viridis [11]) | herbicidal activity ABUTH (Abutilon theophrasti [13]; dosage 320 g/ha) | Herbicidal activity STEME (Stellaria media [14]; 80 g/ha) | herbicidal activity AVEFA (Avena fatua [15]; 80 g/ha)
90%: Herbicidal activity PHBPU (Pharbitis purpureum) | herbicidal activity ALOMY (Alopecurus myosuroides [4]; 80 g/ha) | herbicidal activity MATIN (Matricaria inodora; dosage 320 g/ha) | herbicidal activity AVEFA (Avena fatua [12])
80%: herbicidal activity CYPES (Cyperus serotinus)

CC[S+]([O-])c1c(C(F)F)ccc(C(=O)Nc2nnc(C)o2)c1I (stereo not drawn) [Example 7-75]
80%: Herbicidal activity PHBPU (Pharbitis purpureum) | herbicidal activity ALOMY (Alopecurus myosuroides [4]; 80 g/ha) | Herbicidal activity STEME (Stellaria media [14]; 80 g/ha)
100%: herbicidal activity ALOMY (Alopecurus myosuroides [2]) | Herbicidal activity ECHCG (ECHCG [3]) | herbicidal activity AMARE (Amaranthus retroflexus [16]) | herbicidal activity VIOTR (Viola tricolor [5]; 80 g/ha) | herbicidal activity MATIN (Matricaria inodora; dosage 320 g/ha) | Herbicidal activity STEME (Stellaria media [8]) | herbicidal activity CYPES (Cyperus serotinus) | herbicidal activity AMARE (Amaranthus retroflexus [9]) | herbicidal activity VIOTR (Viola tricolor [10]; dosage 320 g/ha) | herbicidal activity SETVI (Setaria viridis [11]) | herbicidal activity AVEFA (Avena fatua [12]) | herbicidal activity ABUTH (Abutilon theophrasti [13]; dosage 320 g/ha) | herbicidal activity AVEFA (Avena fatua [15]; 80 g/ha)
90%: herbicidal activity ABUTH (Abutilon theophrasti [1]) | herbicidal activity SETVI (Setaria viridis [6]; 80 g/ha)

— patent publication US20230183193A1, “4-DIFLUOROMETHYL BENZOYL AMIDES WITH HERBICIDAL ACTION” (BAYER CROPSCIENCE AKTIENGESELLSCHAFT, priority 2017, published 2023)
